According to patent US20210186984A1, “CERTAIN (2S)-N-[(1S)-1-CYANO-2-PHENYLETHYL]-1,4-OXAZEPANE-2-CARBOXAMIDES FOR TREATING ANCA ASSOCIATED VASCULITIDES” (Insmed Incorporated, priority 2018, published 2021):

Experiments:
total proteinase 3 (PR3) = assay: Flow cytometry of total (surface and intracellular) PR3 expression in differentiated neutrophils; format: cell-based, human
Protocol: (§1) To evaluate the pharmacological effects of INS1007 on surface PR3 expression, total PR3 expression, and NSP activity, stem cells were differentiated to neutrophils in the presence of INS1007 at increasing concentrations. Primary bone marrow (BM) or umbilical cord blood (UC) derived CD34^+ neutrophil progenitor cells (AllCells; Alameda, Calif.) were cultured for 7 days in STEMSPAN™ SFEM media (Stemcell Technologies; Tukwila, WA) supplemented with recombinant human Stem Cell Factor (Peprotech; Rocky Hill, NJ) and recombinant human IL-3 (Peprotech). The cells were differentiated in culture for another 7 days in STEMSPAN™ SFEM media (Stemcell Technologies) with recombinant human Granulocyte Colony Stimulating Factor (Peprotech), plus increasing concentrations of INS1007 (0-10 μM). At the end of the differentiation/treatment period, cells were harvested for analysis.
Differentiated neutrophils were harvested for flow cytometry to quantify PR3 expression on the surface of neutrophils (FIGS. 1 and 2) and neutrophil total PR3 expression (FIG. 3).

surface PR3 = assay: Fluorescence microscopy of surface PR3 on neutrophils differentiated in presence of INS1007; format: cell-based, human; settings: differentiation in the presence of 10 μM; neutrophils derived from bone marrow and umbilical cord stem cells (both cell types)
Protocol: as §1, with “At the end of the differentiation/treatment period, cells were harvested for analysis.” left out
In a separate experiment, neutrophils were harvested, stained for 30 min. with either a mouse anti-PR3 monoclonal antibody (Abcam; Cambridge, Mass.) or a mouse monoclonal IgG isotype control (Abcam), followed by a Cy5-conjugated goat anti-mouse IgG secondary antibody (Abcam), fixed in 4% formaldehyde, and mounted to glass slides with PROLONGTM Diamond Antifade Mountant with DAPI (Thermo Fisher; Waltham, Mass.). Samples were imaged with an Axio fluorescence microscope (Zeiss; Oberkochen, Germany) using constant settings while imaging samples from different treatment conditions.

**Q.** What does the source list for `Cn1c(=O)oc2ccc(-c3ccc(C[C@@H](C#N)NC(=O)[C@@H]4CNCCCO4)cc3)cc21` [INS1007, (2S)-N-{(1S)-1-cyano-2-[4-(3-methyl-2-oxo-2,3-dihydro-1,3-benzoxazol-5-yl)phenyl]ethyl}-1,4-oxazepane-2-carboxamide]?
**A.** total PR3 levels (total proteinase 3 (PR3); bone marrow stem cell-derived neutrophils, not completely concentration-dependent): significantly reduced; percentage of cells with positive total PR3 expression (total proteinase 3 (PR3); neutrophils derived from either umbilical cord blood or bone marrow stem cells): did not reduce; total PR3 levels (total proteinase 3 (PR3); umbilical cord blood stem cell-derived neutrophils): did not reach statistically significant reduction; surface PR3 (fluorescence microscopy) (surface PR3): markedly reduced
